{"source": "ChEMBL document CHEMBL1240493", "about": "“Homology modeling and atomic level binding study of GABA(A) receptor with novel enaminone amides” (Eur J Med Chem, 2010)", "note": "pIC50: −log10 of the molar value.", "data": [{"target": "GABA-A receptor; alpha-1/beta-2/gamma-2 (Rattus norvegicus, UniProt P18508+P62813+P63138)", "sequence (P18508 whole entry)": "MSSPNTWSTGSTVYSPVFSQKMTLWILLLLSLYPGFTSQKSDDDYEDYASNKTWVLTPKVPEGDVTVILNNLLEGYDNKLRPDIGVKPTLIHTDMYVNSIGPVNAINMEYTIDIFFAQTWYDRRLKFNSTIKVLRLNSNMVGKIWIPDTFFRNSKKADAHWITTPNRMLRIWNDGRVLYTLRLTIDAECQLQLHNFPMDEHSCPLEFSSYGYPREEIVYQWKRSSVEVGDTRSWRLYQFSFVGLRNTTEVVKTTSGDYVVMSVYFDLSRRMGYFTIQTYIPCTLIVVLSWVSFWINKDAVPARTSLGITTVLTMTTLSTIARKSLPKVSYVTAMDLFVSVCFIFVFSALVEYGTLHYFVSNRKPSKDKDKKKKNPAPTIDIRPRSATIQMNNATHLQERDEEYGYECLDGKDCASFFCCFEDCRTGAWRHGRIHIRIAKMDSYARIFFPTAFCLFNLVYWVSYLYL", "sequence (P62813 whole entry)": "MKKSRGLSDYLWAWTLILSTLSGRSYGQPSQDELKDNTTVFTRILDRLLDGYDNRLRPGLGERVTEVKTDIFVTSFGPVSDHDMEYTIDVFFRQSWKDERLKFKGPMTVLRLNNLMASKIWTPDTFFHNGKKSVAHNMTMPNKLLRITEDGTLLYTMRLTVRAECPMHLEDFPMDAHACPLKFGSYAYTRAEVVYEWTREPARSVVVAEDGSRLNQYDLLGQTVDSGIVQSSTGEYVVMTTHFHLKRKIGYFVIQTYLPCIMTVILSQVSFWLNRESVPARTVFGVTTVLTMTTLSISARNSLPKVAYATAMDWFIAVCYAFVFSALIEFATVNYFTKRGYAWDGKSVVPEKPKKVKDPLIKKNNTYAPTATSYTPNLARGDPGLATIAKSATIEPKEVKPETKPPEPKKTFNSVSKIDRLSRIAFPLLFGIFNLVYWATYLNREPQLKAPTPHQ", "sequence (P63138 whole entry)": "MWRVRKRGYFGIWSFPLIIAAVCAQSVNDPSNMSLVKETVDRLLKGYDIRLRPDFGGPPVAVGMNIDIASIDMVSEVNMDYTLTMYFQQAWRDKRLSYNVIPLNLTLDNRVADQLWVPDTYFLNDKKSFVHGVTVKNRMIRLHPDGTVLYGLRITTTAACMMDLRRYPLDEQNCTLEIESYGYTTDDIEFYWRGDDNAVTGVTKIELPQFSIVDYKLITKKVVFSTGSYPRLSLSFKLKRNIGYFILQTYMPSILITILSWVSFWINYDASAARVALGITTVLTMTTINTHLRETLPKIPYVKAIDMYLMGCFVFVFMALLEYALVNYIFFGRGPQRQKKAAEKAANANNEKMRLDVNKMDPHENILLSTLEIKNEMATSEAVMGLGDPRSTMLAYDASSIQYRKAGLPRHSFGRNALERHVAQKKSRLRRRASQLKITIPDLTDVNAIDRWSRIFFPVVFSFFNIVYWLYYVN", "test": "Inhibition of rat GABA alpha-1-beta-2-gamma-2 receptor", "assay_type": "protein-complex assay", "values": [{"compound": "NC(=O)/C(=C\\Nc1ccc(Cl)cc1)C(=O)c1ccccc1Cl", "pIC50": 5.77}, {"compound": "CNC(=O)/C(=C\\Nc1ccc(Cl)cc1)C(=O)c1ccccc1Cl", "pIC50": 6.80}, {"compound": "CCC(CC)NC(=O)/C(=C\\Nc1ccc(Cl)cc1)C(=O)c1ccccc1Cl", "pIC50": 7.10}, {"compound": "CCNC(=O)/C(=C\\Nc1ccc(Cl)cc1)C(=O)c1ccccc1Cl", "pIC50": 7.30}, {"compound": "CC(C)NC(=O)/C(=C\\Nc1ccc(Cl)cc1)C(=O)c1ccccc1Cl", "pIC50": 7.40}, {"compound": "O=C(NC1CC1)/C(=C\\Nc1ccc(Cl)cc1)C(=O)c1ccccc1Cl", "pIC50": 7.52}, {"compound": "O=C(NC1CCCC1)/C(=C\\Nc1ccc(Cl)cc1)C(=O)c1ccccc1Cl", "pIC50": 7.52}, {"compound": "CC(C)(C)NC(=O)/C(=C\\Nc1ccc(Cl)cc1)C(=O)c1ccccc1Cl", "pIC50": 5.52}, {"compound": "CC(C)C(C)NC(=O)/C(=C\\Nc1ccc(Cl)cc1)C(=O)c1ccccc1Cl", "note": "(configuration not stated)", "pIC50": 6.40}, {"compound": "CCC(C)NC(=O)/C(=C\\Nc1ccc(Cl)cc1)C(=O)c1ccccc1Cl", "note": "(configuration not stated)", "pIC50": 7.70}, {"compound": "O=C(NC1CCC1)/C(=C\\Nc1ccc(Cl)cc1)C(=O)c1ccccc1Cl", "pIC50": 8.15}, {"compound": "CCCNC(=O)/C(=C\\Nc1ccc(Cl)cc1)C(=O)c1ccccc1Cl", "pIC50": 7.35}]}]}
